In test [1] the test system is Total ATXN3 (tATXN3) protein. As to the kind of experiment: Endogenous Total ATXN3 (tATXN3) Protein Assay (MSD immunoassay of cell lysates). The test is classed as cell-based. To be noted: average IC50, total ATXN3 protein in cell lysate after 48 h with compound (Table 1). In short, it runs like this:
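Cells in DMEM/10% FBS were plated at 10,000 per well onto 7-point, 3.16-fold compound dilutions in duplicate for 48 h at 37° C, then lysed. Total ATXN3 in lysates was measured by MSD sandwich immunoassay: mouse anti-ATXN3 capture, rabbit anti-ATXN3 detection, SULFO-TAG anti-rabbit. Average IC50 was reported in star bins.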

The subject of another test is ATXN3 pre-mRNA. As to the kind of experiment: RT-qPCR Assay to Quantify Exon 4 Skipping in ATXN3 pre-mRNA in Cells. The test is classed as cell-based. Conditions: percent exon 4 skipping in ATXN3 pre-mRNA, RT-qPCR of cell lysates; average IC50. In short, it runs like this:
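Cells plated at 10,000/well onto a 7-point, 3.16-fold DMSO dilution series (duplicates), incubated 24 h at 37 °C, then lysed. Exon 4 skipping measured by one-step RT-qPCR (48 °C RT, 40 cycles); IC50 interpolated from dose-response fit of percent skipping.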

As a reminder, the IC50 is the concentration at which inhibition is half-maximal. With `C#Cc1c([C@@H]2CCCC[C@H]2N)sc2c(NCc3ccccc3)cc(Cl)nc12` [Compound 344, 2-((1R,2R)-2-aminocyclohexyl)-N-benzyl-5-chloro-3-ethynylthieno[3,2-b]pyridin-7-amine], the IC50 (in test [1]; in the test with ATXN3 pre-mRNA) was 30 to 300 nM throughout.
Turning to `N[C@@H]1CCCCC[C@H]1c1cc2nc(Cl)cc(NCc3cccs3)c2s1` [Compound 80, 2-((1R,2R)-2-aminocycloheptyl)-5-chloro-N-(thiophen-2-ylmethyl)thieno[3,2-b]pyridin-7-amine], the IC50 (in test [1]; in the test with ATXN3 pre-mRNA) was over 1000 nM in each case.
As for `N[C@@H]1CCCO[C@@H]1c1sc2c(NCc3cccs3)cc(Cl)nc2c1Cl` [Compound 17, 2-((2S,3R)-3-aminotetrahydro-2H-pyran-2-yl)-3,5-dichloro-N-(thiophen-2-ylmethyl)thieno[3,2-b]pyridin-7-amine], the IC50 (in test [1]; with ATXN3 pre-mRNA) was over 1000 nM in each case.
For `CC#CCNc1cc(Cl)nc2c(Br)c([C@@H]3CC(C)=C(C)C[C@H]3N)sc12` [Compound 438, 2-((1R,6R)-6-amino-3,4-dimethylcyclohex-3-en-1-yl)-3-bromo-N-(but-2-yn-1-yl)-5-chlorothieno[3,2-b]pyridin-7-amine], the IC50 in test [1] was in the range of 300 to 1000 nM; with ATXN3 pre-mRNA it was 30 to 300 nM.
The like results for `N[C@H]1CC=CC[C@@H]1c1sc2c(NCc3cccs3)cc(Cl)nc2c1C#CC[C@H](O)CO` [Compound 216, (S)-5-(2-((1S,6S)-6-aminocyclohex-3-en-1-yl)-5-chloro-7-((thiophen-2-ylmethyl)amino)thieno[3,2-b]pyridin-3-yl)pent-4-yne-1,2-diol] were, in that order, at most 30 nM and at most 30 nM.
Consider `Cc1c([C@H]2CC=CC[C@@H]2N)sc2c(NCc3nccs3)nc(Cl)nc12` [Compound 223, 6-((1S,6S)-6-aminocyclohex-3-en-1-yl)-2-chloro-7-methyl-N-(thiazol-2-ylmethyl)thieno[3,2-d]pyrimidin-4-amine], for which the IC50 (in test [1]; with ATXN3 pre-mRNA) was at most 30 nM throughout.
In the case of `N[C@H]1CCC[C@@H]1c1sc2c(NCc3ccco3)cc(Cl)nc2c1Br` [Compound 165, 2-((1S,2S)-2-aminocyclopentyl)-3-bromo-5-chloro-N-(furan-2-ylmethyl)thieno[3,2-b]pyridin-7-amine], the IC50 (in test [1]; in the test on ATXN3 pre-mRNA) was at most 30 nM throughout.
For the molecule `Cc1c([C@H]2CC=CC[C@@H]2N)sc2c(NCc3cccs3)cc(Cl)nc12` [Compound 222, 2-((1S,6S)-6-aminocyclohex-3-en-1-yl)-5-chloro-3-methyl-N-(thiophen-2-ylmethyl)thieno[3,2-b]pyridin-7-amine], the IC50 (in test [1]; in the test on ATXN3 pre-mRNA) was at most 30 nM each time.
As to `CN[C@H]1CC=CC[C@@H]1c1sc2c(NCc3cccs3)cc(Cl)nc2c1C#CCCO` [Compound 303, 4-(5-chloro-2-((1S,6S)-6-(methylamino)cyclohex-3-en-1-yl)-7-((thiophen-2-ylmethyl)amino)thieno[3,2-b]pyridin-3-yl)but-3-yn-1-ol], the IC50 (in test [1]; in the test on ATXN3 pre-mRNA) was 30 to 300 nM each time.
In the case of “5-chloro-3-iodo-2-((1R,6R)-6-(methylamino)cyclohex-3-en-1-yl)-N-(thiophen-2-ylmethyl)thieno[3,2-b]pyridin-7-amine and 5-chloro-3-iodo-2-((1S,6S)-6-(methylamino)cyclohex-3-en-1-yl)-N-(thiophen-2-ylmethyl)thieno[3,2-b]pyridin-7-amine [Compound 387]”, the IC50 in test [1] was 30 to 300 nM; in the test with ATXN3 pre-mRNA, 300 to 1000 nM.
Turning to `N[C@H]1CC=CC[C@@H]1c1sc2c(NCc3cccs3)nc(Cl)nc2c1I` [Compound 182, 6-((1S,6S)-6-aminocyclohex-3-en-1-yl)-2-chloro-7-iodo-N-(thiophen-2-ylmethyl)thieno[3,2-d]pyrimidin-4-amine], the IC50 (in test [1]; in the test with ATXN3 pre-mRNA) was at most 30 nM throughout.
As to “(1R,2S,3R)-2-amino-3-(5-chloro-3-methyl-7-((thiophen-2-ylmethyl)amino)thieno[3,2-b]pyridin-2-yl)cyclohexan-1-ol and (1S,2R,3S)-2-amino-3-(5-chloro-3-methyl-7-((thiophen-2-ylmethyl)amino)thieno[3,2-b]pyridin-2-yl)cyclohexan-1-ol [Compound 374]”, the IC50 (in test [1]; in the test on ATXN3 pre-mRNA) was 30 to 300 nM in each case.
For the molecule `Cc1c([C@@H]2CCC[C@H]2N)sc2c(NCc3ccco3)cc(Cl)nc12` [Compound 145, 2-((1R,2R)-2-aminocyclopentyl)-5-chloro-N-(furan-2-ylmethyl)-3-methylthieno[3,2-b]pyridin-7-amine], the IC50 in test [1] was over 1000 nM; with ATXN3 pre-mRNA it was 30 to 300 nM.
The matching figures for `Cc1c([C@@H]2CC=CC[C@H]2N)sc2c(NCc3ccsc3)cc(Cl)nc12` [Compound 419, 2-((1R,6R)-6-aminocyclohex-3-en-1-yl)-5-chloro-3-methyl-N-(thiophen-3-ylmethyl)thieno[3,2-b]pyridin-7-amine]: 30 to 300 nM and 30 to 300 nM.
With “2-((2R,3R)-3-aminobicyclo[3.2.1]octan-2-yl)-3-bromo-5-chloro-N-(thiophen-2-ylmethyl)thieno[3,2-b]pyridin-7-amine and 2-((2S,3S)-3-aminobicyclo[3.2.1]octan-2-yl)-3-bromo-5-chloro-N-(thiophen-2-ylmethyl)thieno[3,2-b]pyridin-7-amine [Compound 85]”, the IC50 (in test [1]; in the test with ATXN3 pre-mRNA) was over 1000 nM each time.
With `N[C@@H]1CC=CC[C@H]1c1sc2c(NCc3cccs3)nc(Cl)nc2c1Cl.N[C@H]1CC=CC[C@@H]1c1sc2c(NCc3cccs3)nc(Cl)nc2c1Cl` (mixture of isomers) [Compound 240, 6-((1R,6R)-6-aminocyclohex-3-en-1-yl)-2,7-dichloro-N-(thiophen-2-ylmethyl)thieno[3,2-d]pyrimidin-4-amine and 6-((1S,6S)-6-aminocyclohex-3-en-1-yl)-2,7-dichloro-N-(thiophen-2-ylmethyl)thieno[3,2-d]pyrimidin-4-amine], the IC50 (in test [1]; with ATXN3 pre-mRNA) was at most 30 nM each time.
As for `N[C@H]1CCCO[C@@H]1c1sc2c(NCc3ccco3)cc(Cl)nc2c1Cl` [Compound 116, 2-((2S,3S)-3-aminotetrahydro-2H-pyran-2-yl)-3,5-dichloro-N-(furan-2-ylmethyl)thieno[3,2-b]pyridin-7-amine], the concentration for half-maximal inhibition (IC50) (in test [1]; in the test on ATXN3 pre-mRNA) was at most 30 nM throughout.
Consider “5-(2-chloro-6-((1R,6R)-6-(methylamino)cyclohex-3-en-1-yl)-4-((thiophen-2-ylmethyl)amino)thieno[3,2-d]pyrimidin-7-yl)pent-4-yn-1-ol and 5-(2-chloro-6-((1S,6S)-6-(methylamino)cyclohex-3-en-1-yl)-4-((thiophen-2-ylmethyl)amino)thieno[3,2-d]pyrimidin-7-yl)pent-4-yn-1-ol [Compound 293]”, for which the IC50 (in test [1]; with ATXN3 pre-mRNA) was 30 to 300 nM throughout.
On to “2-((2R,3R)-3-aminotetrahydro-2H-pyran-2-yl)-3-bromo-5-chloro-1-(difluoromethyl)-N-(thiophen-2-ylmethyl)-1H-pyrrolo[3,2-b]pyridin-7-amine and 2-((2S,3S)-3-aminotetrahydro-2H-pyran-2-yl)-3-bromo-5-chloro-1-(difluoromethyl)-N-(thiophen-2-ylmethyl)-1H-pyrrolo[3,2-b]pyridin-7-amine [Compound 224]”, for which the IC50 (in test [1]; in the test on ATXN3 pre-mRNA) was at most 30 nM each time.
